Structures can show the parent of a compound that is named as a salt.
How the values were obtained:
[1] = molecular target: T1, human JAK3 kinase domain (JH1) (Homo sapiens, UniProt P52333); experiment: JH1 biochemical assay for JAK3 (ADP-Glo kinase assay, recombinant JH1 catalytic domain, JAK3-974 peptide, 4 μM ATP)
T1 construct: recombinantly generated catalytic kinase (also known as JH1) domain of human JAK1, JAK2, JAK3 and TYK2
Experimental: (§1) Compounds of the disclosure were assessed for their ability to inhibit TYK2, JAK1, JAK2, and JAK3 activity. The inhibitory properties of the compounds of the disclosure described herein can be evidenced by testing in any one of the following protocols.
(§2) The kinase activity of recombinantly generated catalytic kinase (also known as JH1) domain of human JAK1, JAK2, JAK3 and TYK2 were evaluated in a plate-based assay using the ADP-Glo™ Kinase Assay platform. Specifically, 4 nM of recombinant JAK1 kinase domain is used to phosphorylate 50 μM of a JAK3-342 (sequence ALVDGYFRLTT) peptide in the presence of 35 μM ATP. Catalytic activities of recombinant JAK2, JAK3 and TYK2 kinase domain (0.2, 0.3 and 2 nM, respectively) are evaluated by the phosphorylation status of the JAK3-974 (50 μM; sequence LPLDKDYYVVR) peptide with the addition of ATP (15, 4 and 10 μM, respectively). The reactions proceed for 100 minutes and the catalytic activity is quantified by first depleting the unused ATP, converting the hydrolyzed ADP into ATP to generate luminescence in a luciferase reaction; which is the basis of the ADP-Glo platform. Compounds are tested at either 10 μM or 1 μM top concentration, 11 points of 3-fold dilution. The data is normalized and the percent activity versus log concentration of compound is fitted with a 4-parameter logistic model to generate a curve and an IC50 value.

[2] = molecular target: T2, human JAK1 kinase domain (JH1) (Homo sapiens, UniProt P23458); experiment: JH1 biochemical assay for JAK1 (ADP-Glo kinase assay, recombinant JH1 catalytic domain, JAK3-342 peptide, 35 μM ATP)
T2 construct: recombinantly generated catalytic kinase (also known as JH1) domain of human JAK1, JAK2, JAK3 and TYK2
Experimental: as §1, §2

[3] = molecular target: T3, human TYK2 kinase domain (JH1) (Homo sapiens, UniProt P29597); experiment: JH1 biochemical assay for TYK2 (ADP-Glo kinase assay, recombinant JH1 catalytic domain, JAK3-974 peptide, 10 μM ATP)
T3 construct: recombinantly generated catalytic kinase (also known as JH1) domain of human JAK1, JAK2, JAK3 and TYK2
T3 sequence (P29597 897-1176 limits assumed): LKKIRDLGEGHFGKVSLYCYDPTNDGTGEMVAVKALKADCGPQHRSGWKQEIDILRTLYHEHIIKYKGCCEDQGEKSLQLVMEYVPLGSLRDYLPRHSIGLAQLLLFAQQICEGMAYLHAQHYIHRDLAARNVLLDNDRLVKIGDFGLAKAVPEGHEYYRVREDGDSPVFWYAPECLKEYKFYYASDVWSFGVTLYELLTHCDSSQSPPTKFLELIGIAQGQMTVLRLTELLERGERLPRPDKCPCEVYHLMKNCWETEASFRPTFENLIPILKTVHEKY
Experimental: as §1, §2

[4] = molecular target: T4, human JAK2 kinase domain (JH1) (Homo sapiens, UniProt O60674); experiment: JH1 biochemical assay for JAK2 (ADP-Glo kinase assay, recombinant JH1 catalytic domain, JAK3-974 peptide, 15 μM ATP)
T4 construct: recombinantly generated catalytic kinase (also known as JH1) domain of human JAK1, JAK2, JAK3 and TYK2
Experimental: as §1, §2

T1 sequence (P52333 822-1111 limits assumed): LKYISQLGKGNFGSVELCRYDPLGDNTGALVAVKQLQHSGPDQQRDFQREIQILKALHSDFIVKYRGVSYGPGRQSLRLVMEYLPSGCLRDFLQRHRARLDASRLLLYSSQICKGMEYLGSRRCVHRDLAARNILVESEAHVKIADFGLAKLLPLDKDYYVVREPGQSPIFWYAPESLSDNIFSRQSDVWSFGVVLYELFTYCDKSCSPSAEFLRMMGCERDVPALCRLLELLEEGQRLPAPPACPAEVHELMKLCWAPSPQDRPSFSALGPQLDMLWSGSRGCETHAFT
T2 sequence (P23458 875-1153 limits assumed): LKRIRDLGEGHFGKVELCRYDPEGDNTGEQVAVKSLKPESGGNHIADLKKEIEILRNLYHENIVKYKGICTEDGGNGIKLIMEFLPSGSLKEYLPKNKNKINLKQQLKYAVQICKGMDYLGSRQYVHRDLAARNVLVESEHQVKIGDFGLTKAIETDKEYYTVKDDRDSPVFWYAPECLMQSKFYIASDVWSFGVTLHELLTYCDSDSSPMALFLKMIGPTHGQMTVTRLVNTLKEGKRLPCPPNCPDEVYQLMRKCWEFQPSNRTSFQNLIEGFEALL
T4 sequence (O60674 849-1124 limits assumed): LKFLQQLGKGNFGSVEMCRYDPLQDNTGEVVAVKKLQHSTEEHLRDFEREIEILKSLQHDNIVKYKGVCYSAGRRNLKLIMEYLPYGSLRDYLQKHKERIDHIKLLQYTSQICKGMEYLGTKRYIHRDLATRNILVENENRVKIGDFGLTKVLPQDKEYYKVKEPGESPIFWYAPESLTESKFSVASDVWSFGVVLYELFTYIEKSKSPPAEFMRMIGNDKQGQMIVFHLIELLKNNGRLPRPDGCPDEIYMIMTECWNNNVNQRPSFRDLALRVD

## COc1ncc(-c2cn3nccc3c(N3C[C@@H](C)[C@@](C#N)(C4CC4)C3=O)n2)cc1C#N [Example 262, 5-(4-((3R,4S)-3-cyano-3-cyclopropyl-4-methyl-2-oxopyrrolidin-1-yl)pyrazolo[1,5-a]pyrazin-6-yl)-2-methoxynicotinonitrile trifluoroacetate]
[1]; JAK3 JH1, ADP-Glo
  IC50: > 10 µM
[2]; JAK1 JH1, ADP-Glo
  IC50: > 10 µM
[3]; TYK2 JH1, ADP-Glo
  IC50: 0.02 to 0.05 µM
[4]; JAK2 JH1, ADP-Glo
  IC50: > 10 µM

## C[C@@H]1CN(c2nc(-c3ccc(C(F)(F)F)nc3)cn3nccc23)C(=O)[C@]1(C#N)C1CC1 [Example 238, (3R,4S)-3-cyclopropyl-4-methyl-2-oxo-1-(6-(6-(trifluoromethyl)pyridin-3-yl)pyrazolo[1,5-a]pyrazin-4-yl)pyrrolidine-3-carbonitrile trifluoroacetate]
[1]; JAK3 JH1, ADP-Glo
  IC50: > 10 µM
[2]; JAK1 JH1, ADP-Glo
  IC50: > 10 µM
[3]; TYK2 JH1, ADP-Glo
  IC50: > 0.1 µM
[4]; JAK2 JH1, ADP-Glo
  IC50: > 10 µM

## C[C@@H]1CN(c2nc(-c3cncc(F)c3)cn3nccc23)C(=O)[C@]1(C#N)C1CC1 [Example 246, (3R,4S)-3-cyclopropyl-1-(6-(5-fluoropyridin-3-yl)pyrazolo[1,5-a]pyrazin-4-yl)-4-methyl-2-oxopyrrolidine-3-carbonitrile trifluoroacetate]
[1]; JAK3 JH1, ADP-Glo
  IC50: 0.1 to 1 µM
[2]; JAK1 JH1, ADP-Glo
  IC50: 0.1 to 1 µM
[3]; TYK2 JH1, ADP-Glo
  IC50: 0.005 to 0.02 µM
[4]; JAK2 JH1, ADP-Glo
  IC50: 0.1 to 1 µM

## C[C@@H]1CN(c2ccnn3cc(-c4ccnn4C)cc23)C(=O)[C@]1(C#N)C1CC1 [Example 49, (3R,4S)-3-cyclopropyl-4-methyl-1-(6-(1-methyl-1H-pyrazol-5-yl)pyrrolo[1,2-b]pyridazin-4-yl)-2-oxopyrrolidine-3-carbonitrile]
[1]; JH1 kinase domain, ADP-Glo
  IC50: 1 to 5 µM
[2]; JH1 kinase domain, ADP-Glo
  IC50: 0.1 to 1 µM
[3]; JH1 kinase domain, ADP-Glo
  IC50: 0.02 to 0.05 µM
[4]; JH1 kinase domain, ADP-Glo
  IC50: 1 to 5 µM

## COc1cccc(-c2cc3c(N4C[C@@H](C)[C@@](C#N)(C5CC5)C4=O)ccnn3c2)n1 [Example 143, (3R,4S)-3-cyclopropyl-1-(6-(6-methoxypyridin-2-yl)pyrrolo[1,2-b]pyridazin-4-yl)-4-methyl-2-oxopyrrolidine-3-carbonitrile trifluoroacetate]
[1]; JH1 kinase domain, ADP-Glo
  IC50: 0.1 to 1 µM
[2]; JH1 kinase domain, ADP-Glo
  IC50: 0.1 to 1 µM
[3]; JH1 kinase domain, ADP-Glo
  IC50: 0.02 to 0.05 µM
[4]; JH1 kinase domain, ADP-Glo
  IC50: 1 to 5 µM

## C[C@H]1C[C@](C#N)(C2CC2)C(=O)N1c1ccnn2cc(-c3cnn(C)c3)cc12 [Example 30, (3R,5S)-3-cyclopropyl-5-methyl-1-(6-(1-methyl-1H-pyrazol-4-yl)pyrrolo[1,2-b]pyridazin-4-yl)-2-oxopyrrolidine-3-carbonitrile]
[1]; JH1 kinase domain, ADP-Glo
  IC50: > 10 µM
[2]; JH1 kinase domain, ADP-Glo
  IC50: > 10 µM
[3]; JH1 kinase domain, ADP-Glo
  IC50: > 0.1 µM
[4]; JH1 kinase domain, ADP-Glo
  IC50: > 10 µM

## C[C@H]1CN(c2ccnn3cc(-c4cnn(C)c4)cc23)C(=O)[C@@]1(C#N)C1CC1 [Example 29, (3S,4R)-3-cyclopropyl-4-methyl-1-(6-(1-methyl-1H-pyrazol-4-yl)pyrrolo[1,2-b]pyridazin-4-yl)-2-oxopyrrolidine-3-carbonitrile]
[1]; JH1 kinase domain, ADP-Glo
  IC50: > 10 µM
[2]; JH1 kinase domain, ADP-Glo
  IC50: > 10 µM
[3]; JH1 kinase domain, ADP-Glo
  IC50: > 0.1 µM
[4]; JH1 kinase domain, ADP-Glo
  IC50: > 10 µM

## COc1cncc(-c2cc3c(N4C[C@@H](C)[C@@](C#N)(C5CC5)C4=O)ccnn3c2)c1 [Example 82, (3R,4S)-3-cyclopropyl-1-(6-(5-methoxypyridin-3-yl)pyrrolo[1,2-b]pyridazin-4-yl)-4-methyl-2-oxopyrrolidine-3-carbonitrile]
[1]; JH1 kinase domain, ADP-Glo
  IC50: > 10 µM
[2]; JH1 kinase domain, ADP-Glo
  IC50: > 10 µM
[3]; JH1 kinase domain, ADP-Glo
  IC50: 0.02 to 0.05 µM
[4]; JH1 kinase domain, ADP-Glo
  IC50: > 10 µM

## Cc1ccc(-n2nc(N3C[C@@H](C)[C@@](C#N)(C4CC4)C3=O)c3ccncc32)cn1 [Example 282, (3R,4S)-3-cyclopropyl-4-methyl-1-(1-(6-methylpyridin-3-yl)-1H-pyrazolo[3,4-c]pyridin-3-yl)-2-oxopyrrolidine-3-carbonitrile]
[1]; JAK3 JH1, ADP-Glo
  IC50: 1 to 5 µM
[2]; JAK1 JH1, ADP-Glo
  IC50: 1 to 5 µM
[3]; TYK2 JH1, ADP-Glo
  IC50: 0.02 to 0.05 µM
[4]; JAK2 JH1, ADP-Glo
  IC50: 1 to 5 µM

## Cn1cc(-c2cc3c(N4CCC(C#N)C4=O)ccnn3c2)cn1 (stereo not shown) [Example 7, 1-(6-(1-methyl-1H-pyrazol-4-yl)pyrrolo[1,2-b]pyridazin-4-yl)-2-oxopyrrolidine-3-carbonitrile]
[1]; JH1 kinase domain, ADP-Glo
  IC50: 5 to 10 µM
[2]; JH1 kinase domain, ADP-Glo
  IC50: > 10 µM
[3]; JH1 kinase domain, ADP-Glo
  IC50: > 0.1 µM
[4]; JH1 kinase domain, ADP-Glo
  IC50: 5 to 10 µM

From patent US20260297085A1, “1 H-PYRROLO[2,3-B]PYRIDIN-4-YL]-2-OXOPYRROLIDINE-3-CARBONITRILE DERIVATIVES AS TYROSINE KINASE 2 (TYK2) INHIBITORS FOR THE TREATMENT OF INFLAMMATORY DISEASES” (BIOGEN MA INC., priority 2023, published 2026)
